Data: patent US12329802B2, “Focal treatment of prostate cancer” (Nymox Corporation, priority 2019, dated 2025)
Where no end group is shown, it is not given here.

Columns and labels:
[1] = system: low grade prostate cancer (Gleason grade 6); assay: clinical study: hemi-prostate multifocal cancer with Gleason upgrade (Example 1); type: in vivo, human; settings: for % Imp. (hemi-prostate multifocal cancer with Gleason upgrade): vs active surveillance control
Method: (§1) In a series of clinical studies a total of 146 men with low grade prostate cancer (Gleason grade 6) were treated in the following manner. Patients were randomized and treated with a transrectal intraprostatic single injection of a composition comprising 2.5 mg FT (n=49), or a composition comprising 15 mg FT (n=48), or were subject to control active surveillance (n=49). After the first follow-up biopsy at 45 days post-randomization, 18 patients in the control active surveillance group crossed over to a single administration of a composition comprising 2.5 mg FT. Patients were followed for 5 years including biopsies at baseline, 45 days, 18, 36, and 60 months, and urological evaluations with PSA every 6 months. Patients with Gleason grade increase or who elected surgical or radiotherapeutic intervention exited the study and were still included in the data analysis. Percentage of normal biopsies in the baseline focus quadrant and median tumor grade and volume were assessed; progression was measured by clinical and pathological outcomes including Gleason grade in the entire prostate sampled as well as for the treated prostate lobe. Interventions associated with Gleason grade increase as well as total incidence for any intervention was assessed.

[2] = system: low grade prostate cancer (Gleason grade 6); assay: clinical study: hemi-prostate multifocal cancer with increase in Gleason primary pattern (Example 2); type: in vivo, human; settings: for % Imp. (hemi-prostate multifocal cancer with increase in Gleason primary pattern): vs active surveillance control
Method: as §1

[3] = system: low grade prostate cancer (Gleason grade 6); assay: clinical study: cancer treatment with new multifocal with increased Gleason grade in the hemi-prostate (Example 3); type: in vivo, human; settings: for % Imp. (cancer treatment with new multifocal with increased Gleason grade in the hemi-prostate): vs active surveillance control
Method: as §1
This example evaluated the percentage of patients who had conventional cancer treatment (e.g., surgery, radiotherapy, and/or chemotherapy), and who and who had multifocal prostate cancer in the lobe (or hemi-prostate) in which the foci were initially treated with Gleason upgrade (cancer treatment with new multifocal with increased Gleason grade in the hemi-prostate).

[4] = system: low grade prostate cancer (Gleason grade 6); assay: clinical study: cancer treatment with new multifocal and an increase in Gleason grade primary pattern in the hemi-prostate (Example 4); type: in vivo, human; settings: for % Imp. (cancer treatment with new multifocal and an increase in Gleason grade primary pattern in the hemi-prostate): vs active surveillance control
Method: as §1
This example evaluated the percentage of patients having conventional cancer treatment (surgery, radiotherapy, or chemotherapy), and having multifocal prostate cancer in the lobe (or hemi-prostate) in which the foci were initially treated with Gleason primary pattern (cancer treatment with new multifocal and an increase in Gleason grade primary pattern in the hemi-prostate).

[5] = system: prostate glandular epithelial cells; assay: tissue culture genetic array, in vitro; type: cell-based
Text: Use of FT is a preferred embodiment. FT is a new molecular entity which in vitro stimulates caspase pathways (activation of caspases 7, 8, and 10, caspase recruitment domains 6, 11, and 14, and DIABLO), tumor necrosis factor pathways (activation of TNF1, TNFSF6, TNFSF8, TNFSF9, CD70 ligands, and TNFRSF19L, TNFRSF25, TRAF2, TRAF3, TRAF4, TRAF6 receptors), and BCL pathways (activation of BIK, HRK, BCL2L10 and BCL3) in prostate glandular epithelial cells, based on tissue culture genetic array data. […] The apoptotic process leads to typical ultrastructural progressive changes of membranous disruption and swelling, progressively deepening nuclear invaginations with eventual membranous bleb formations and cell death and fragmentation into apoptotic bodies. Histologically, typical apoptotic changes with positive immunohistochemical staining of markers for apoptosis are found throughout the injected areas for up to several weeks after treatment.

[6] = FT 2.5 mg, single transrectal intraprostatic injection, <= 18 mos from treatment
[7] = FT 2.5 mg, single transrectal intraprostatic injection, <= 36 mos from treatment
[8] = FT 2.5 mg, single transrectal intraprostatic injection, <= 48 mos from treatment
[9] = FT 15 mg, single transrectal intraprostatic injection, <= 18 mos from treatment
[10] = FT 15 mg, single transrectal intraprostatic injection, <= 36 mos from treatment
[11] = FT 15 mg, single transrectal intraprostatic injection, <= 48 mos from treatment
[12] = Pooled FT (2.5 mg and 15 mg), <= 18 mos from treatment
[13] = Pooled FT (2.5 mg and 15 mg), <= 36 mos from treatment
[14] = Pooled FT (2.5 mg and 15 mg), <= 48 mos from treatment

For “Ile-Asp-Gln-Gln-Val-Leu-Ser-Arg-Ile-Lys-Leu-Glu-Ile-Lys-Arg-Cys-Leu (IDQQVLSRIKLEIKRCL; also: trifluoroacetate salt) [FT]”, the “percentage of patients with hemi-prostate multifocal cancer with Gleason upgrade” value (from here on “percentage of patients … with Gleason upgrade”) [1, 6] was 8.6%, the “percentage of patients … with Gleason upgrade” value [1, 7] was 16.7% and the “percentage of patients … with Gleason upgrade” value [1, 8] was 42.9%. The “% Imp. (hemi-prostate multifocal cancer with Gleason upgrade)” value ([1]; FT 2.5 mg, <= 18 mos) was 54.26%, the “% Imp. (hemi-prostate multifocal cancer with Gleason upgrade)” value ([1]; FT 2.5 mg, <= 36 mos) was 53.2% and the “% Imp. (hemi-prostate multifocal cancer with Gleason upgrade)” value ([1]; FT 2.5 mg, <= 48 mos) was 5.7%. The “percentage of patients … with Gleason upgrade” value [1, 9] was 5.7%, the “percentage of patients … with Gleason upgrade” value [1, 10] was 9.1% and the “percentage of patients … with Gleason upgrade” value [1, 11] was 13.3%. The “% Imp. (hemi-prostate multifocal cancer with Gleason upgrade)” value ([1]; FT 15 mg, <= 18 mos) was 69.7%, the “% Imp. (hemi-prostate multifocal cancer with Gleason upgrade)” value ([1]; FT 15 mg, <= 36 mos) was 74.5% and the “% Imp. (hemi-prostate multifocal cancer with Gleason upgrade)” value ([1]; FT 15 mg, <= 48 mos) was 70.8%. The “percentage of patients … with Gleason upgrade” value [1, 12] was 7.1%, the “percentage of patients … with Gleason upgrade” value [1, 13] was 13.0% and the “percentage of patients … with Gleason upgrade” value [1, 14] was 27.6%. The “% Imp. (hemi-prostate multifocal cancer with Gleason upgrade)” value ([1]; Pooled FT, <= 18 mos) was 62.2%, the “% Imp. (hemi-prostate multifocal cancer with Gleason upgrade)” value ([1]; Pooled FT, <= 36 mos) was 63.6% and the “% Imp. (hemi-prostate multifocal cancer with Gleason upgrade)” value ([1]; Pooled FT, <= 48 mos) was 39.3%. The “percentage of patients with hemi-prostate multifocal cancer with increase in Gleason primary pattern” value [2, 6] was 0%, the “percentage of patients with hemi-prostate multifocal cancer with increase in Gleason primary pattern” value [2, 7] was 0% and the “percentage of patients with hemi-prostate multifocal cancer with increase in Gleason primary pattern” value [2, 8] was 0%. The “% Imp. (hemi-prostate multifocal cancer with increase in Gleason primary pattern)” value ([2]; FT 2.5 mg, <= 18 mos) was 100%, the “% Imp. (hemi-prostate multifocal cancer with increase in Gleason primary pattern)” value ([2]; FT 2.5 mg, <= 36 mos) was 100% and the “% Imp. (hemi-prostate multifocal cancer with increase in Gleason primary pattern)” value ([2]; FT 2.5 mg, <= 48 mos) was 100%. For the same substance, the “percentage of patients with hemi-prostate multifocal cancer with increase in Gleason primary pattern” value [2, 9] was 2.9%, the “percentage of patients with hemi-prostate multifocal cancer with increase in Gleason primary pattern” value [2, 10] was 4.5% and the “percentage of patients with hemi-prostate multifocal cancer with increase in Gleason primary pattern” value [2, 11] was 6.7%. For the same substance, the “% Imp. (hemi-prostate multifocal cancer with increase in Gleason primary pattern)” value ([2]; FT 15 mg, <= 18 mos) was 76.8%, the “% Imp. (hemi-prostate multifocal cancer with increase in Gleason primary pattern)” value ([2]; FT 15 mg, <= 36 mos) was 79% and the “% Imp. (hemi-prostate multifocal cancer with increase in Gleason primary pattern)” value ([2]; FT 15 mg, <= 48 mos) was 75.5%. For the same substance, the “percentage of patients with hemi-prostate multifocal cancer with increase in Gleason primary pattern” value [2, 12] was 1.4%, the “percentage of patients with hemi-prostate multifocal cancer with increase in Gleason primary pattern” value [2, 13] was 2.2% and the “percentage of patients with hemi-prostate multifocal cancer with increase in Gleason primary pattern” value [2, 14] was 3.4%. For the same substance, the “% Imp. (hemi-prostate multifocal cancer with increase in Gleason primary pattern)” value ([2]; Pooled FT, <= 18 mos) was 88.8%, the “% Imp. (hemi-prostate multifocal cancer with increase in Gleason primary pattern)” value ([2]; Pooled FT, <= 36 mos) was 89.7% and the “% Imp. (hemi-prostate multifocal cancer with increase in Gleason primary pattern)” value ([2]; Pooled FT, <= 48 mos) was 87.5%. The “percentage of patients with cancer treatment with new multifocal with increased Gleason grade in the hemi-prostate” value [3, 6] was 4.9%, the “percentage of patients with cancer treatment with new multifocal with increased Gleason grade in the hemi-prostate” value [3, 7] was 10% and the “percentage of patients with cancer treatment with new multifocal with increased Gleason grade in the hemi-prostate” value [3, 8] was 17.4%. The “% Imp. (cancer treatment with new multifocal with increased Gleason grade in the hemi-prostate)” value ([3]; FT 2.5 mg, <= 18 mos) was 69%, the “% Imp. (cancer treatment with new multifocal with increased Gleason grade in the hemi-prostate)” value ([3]; FT 2.5 mg, <= 36 mos) was 57.4% and the “% Imp. (cancer treatment with new multifocal with increased Gleason grade in the hemi-prostate)” value ([3]; FT 2.5 mg, <= 48 mos) was 44.4%. The “percentage of patients with cancer treatment with new multifocal with increased Gleason grade in the hemi-prostate” value [3, 9] was 5.1%, the “percentage of patients with cancer treatment with new multifocal with increased Gleason grade in the hemi-prostate” value [3, 10] was 7.1% and the “percentage of patients with cancer treatment with new multifocal with increased Gleason grade in the hemi-prostate” value [3, 11] was 8.3%. The “% Imp. (cancer treatment with new multifocal with increased Gleason grade in the hemi-prostate)” value ([3]; FT 15 mg, <= 18 mos) was 67.7%, the “% Imp. (cancer treatment with new multifocal with increased Gleason grade in the hemi-prostate)” value ([3]; FT 15 mg, <= 36 mos) was 69.8% and the “% Imp. (cancer treatment with new multifocal with increased Gleason grade in the hemi-prostate)” value ([3]; FT 15 mg, <= 48 mos) was 73.5%. The “percentage of patients with cancer treatment with new multifocal with increased Gleason grade in the hemi-prostate” value [3, 12] was 5%, the “percentage of patients with cancer treatment with new multifocal with increased Gleason grade in the hemi-prostate” value [3, 13] was 8.6% and the “percentage of patients with cancer treatment with new multifocal with increased Gleason grade in the hemi-prostate” value [3, 14] was 12.8%. The “% Imp. (cancer treatment with new multifocal with increased Gleason grade in the hemi-prostate)” value ([3]; Pooled FT, <= 18 mos) was 68.4%, the “% Imp. (cancer treatment with new multifocal with increased Gleason grade in the hemi-prostate)” value ([3]; Pooled FT, <= 36 mos) was 63.4% and the “% Imp. (cancer treatment with new multifocal with increased Gleason grade in the hemi-prostate)” value ([3]; Pooled FT, <= 48 mos) was 59.1%. The “percentage of patients with cancer treatment with new multifocal and an increase in Gleason grade primary pattern in the hemi-prostate” value [4, 6] was 0%, the “percentage of patients with cancer treatment with new multifocal and an increase in Gleason grade primary pattern in the hemi-prostate” value [4, 7] was 0% and the “percentage of patients with cancer treatment with new multifocal and an increase in Gleason grade primary pattern in the hemi-prostate” value [4, 8] was 0%. The “% Imp. (cancer treatment with new multifocal and an increase in Gleason grade primary pattern in the hemi-prostate)” value ([4]; FT 2.5 mg, <= 18 mos) was 100%, the “% Imp. (cancer treatment with new multifocal and an increase in Gleason grade primary pattern in the hemi-prostate)” value ([4]; FT 2.5 mg, <= 36 mos) was 100% and the “% Imp. (cancer treatment with new multifocal and an increase in Gleason grade primary pattern in the hemi-prostate)” value ([4]; FT 2.5 mg, <= 48 mos) was 100%. For the same substance, the “percentage of patients with cancer treatment with new multifocal and an increase in Gleason grade primary pattern in the hemi-prostate” value [4, 9] was 2.6%, the “percentage of patients with cancer treatment with new multifocal and an increase in Gleason grade primary pattern in the hemi-prostate” value [4, 10] was 3.6% and the “percentage of patients with cancer treatment with new multifocal and an increase in Gleason grade primary pattern in the hemi-prostate” value [4, 11] was 4.2%. For the same substance, the “% Imp. (cancer treatment with new multifocal and an increase in Gleason grade primary pattern in the hemi-prostate)” value ([4]; FT 15 mg, <= 18 mos) was 75.2%, the “% Imp. (cancer treatment with new multifocal and an increase in Gleason grade primary pattern in the hemi-prostate)” value ([4]; FT 15 mg, <= 36 mos) was 79.5% and the “% Imp. (cancer treatment with new multifocal and an increase in Gleason grade primary pattern in the hemi-prostate)” value ([4]; FT 15 mg, <= 48 mos) was 77.7%. The “percentage of patients with cancer treatment with new multifocal and an increase in Gleason grade primary pattern in the hemi-prostate” value [4, 12] was 1.3%, the “percentage of patients with cancer treatment with new multifocal and an increase in Gleason grade primary pattern in the hemi-prostate” value [4, 13] was 1.7% and the “percentage of patients with cancer treatment with new multifocal and an increase in Gleason grade primary pattern in the hemi-prostate” value [4, 14] was 2.1%. The “% Imp. (cancer treatment with new multifocal and an increase in Gleason grade primary pattern in the hemi-prostate)” value ([4]; Pooled FT, <= 18 mos) was 87.6%, the “% Imp. (cancer treatment with new multifocal and an increase in Gleason grade primary pattern in the hemi-prostate)” value ([4]; Pooled FT, <= 36 mos) was 90.3% and the “% Imp. (cancer treatment with new multifocal and an increase in Gleason grade primary pattern in the hemi-prostate)” value ([4]; Pooled FT, <= 48 mos) was 88.8%. For the same substance, the “effect on BCL pathways (activation of BIK, HRK, BCL2L10 and BCL3)” value [5] was “stimulates”, the “effect on caspase pathways (activation of caspases 7, 8, and 10, caspase recruitment domains 6, 11, and 14, and DIABLO)” value [5] was “stimulates” and the “effect on tumor necrosis factor pathways (activation of TNF1, TNFSF6, TNFSF8, TNFSF9, CD70 ligands, and TNFRSF19L, TNFRSF25, TRAF2, TRAF3, TRAF4, TRAF6 receptors)” value [5] was “stimulates”.
